Laboratory results taken from patent publication EP3046573B1, “AMYLIN ANALOGUES” (Zealand Pharma A/S, priority 2013, dated 2015).
Where two headings read alike, the source gives them in different places. Numbered stars: 1 amine (or outer) side, 2 acyl side, 3 side chain; on linkers, the order of the positions; unused ones are H or OH. Bridge positions count the residues as written; N and C are the ends. Square brackets hold non-standard residues; d marks the D form. Peptide text beside a SMILES is read from it. * marks the point of attachment. C20 diacid = O=C(O)CCCCCCCCCCCCCCCCCCC(=O)*; γGlu = O=C(O)[C@H](CCC(=O)[*:2])N[*:1]; NMeI = CC[C@H](C)[C@H](NC)C(=O)O; Sar = CNCC(=O)O

Experiments:
[1] = Solubility assessment (turbidity absorbance at 325 nm); assay type: physicochemical; details: stock 2 mg/ml diluted 1:1, ambient temperature (typically 25°C), n=1; for Solubility, Acetate buffer pH 4: 100 mM acetate buffer pH 4.0; for Solubility, Acetate buffer pH 5: 100 mM acetate buffer pH 5.0; for Solubility, Histidine buffer pH 6: 100 mM histidine buffer pH 6.0; for Solubility, Histidine buffer pH 7: 100 mM histidine buffer pH 7.0; for Solubility, Phosphate buffer pH 6: 100 mM phosphate buffer pH 6.0; for Solubility, Phosphate buffer pH 7: 100 mM phosphate buffer pH 7.0; for Solubility, Phosphate buffer pH 7.5: 100 mM phosphate buffer pH7.5
Procedure, shortened: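 Peptide stock (2 mg/ml) in water acidified to pH 2.5 with HCl was diluted 1:1 into 100 mM acetate (pH 4.0, 5.0), histidine (pH 6.0, 7.0) or phosphate (pH 6.0, 7.0, 7.5) buffer. A280 and A325 were read at about 25°C, n=1. A325 ≤ 0.02 meant solubility ≥ 1 mg/ml.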

[2] = molecular target: T1, human calcitonin receptor (hCTR2) (Homo sapiens, UniProt P30988); experiment: hCTR2 assay: induction of cAMP (AlphaScreen cAMP Assay kit) in COS7 cells expressing hCTR2; assay type: cell-based
T1 construct: expressed in transfected cells
T1 sequence (P30988 25-474): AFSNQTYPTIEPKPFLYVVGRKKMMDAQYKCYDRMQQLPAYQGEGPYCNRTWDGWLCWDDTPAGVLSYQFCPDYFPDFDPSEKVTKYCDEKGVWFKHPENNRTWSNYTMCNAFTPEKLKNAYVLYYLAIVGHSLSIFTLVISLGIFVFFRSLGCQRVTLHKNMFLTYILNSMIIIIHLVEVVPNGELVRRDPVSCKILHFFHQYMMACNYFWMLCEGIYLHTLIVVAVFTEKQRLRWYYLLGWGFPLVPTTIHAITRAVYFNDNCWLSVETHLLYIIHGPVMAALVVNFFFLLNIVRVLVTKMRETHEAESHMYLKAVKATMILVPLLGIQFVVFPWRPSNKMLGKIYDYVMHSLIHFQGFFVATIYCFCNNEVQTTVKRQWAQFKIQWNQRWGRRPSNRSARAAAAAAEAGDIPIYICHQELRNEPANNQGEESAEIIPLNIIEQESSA
Procedure, shortened: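 Stable hCTR2 clone in RAMP-naive COS7 cells; peptides titrated in Tyrode buffer (pH 7.4) with 100 µM IBMX, 0.1% casein, 15 min at 37° C. cAMP read by AlphaScreen after lysis; EC50 and efficacy relative to pramlintide from 4PL fit.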

[3] = molecular target: T2, human amylin receptor 3 (hAMYR3) consisting of hCTR2 co-expressed with human Receptor Activity Modifying Protein 3 (hRAMP3) (Homo sapiens, UniProt O60896+P30988); experiment: hAMYR3 assay: induction of cAMP (AlphaScreen cAMP Assay kit) in COS7 cells expressing hAMYR3; assay type: cell-based
T2 construct: expressed in transfected cells
T2 sequence (P30988 25-474): T1 sequence (P30988 25-474)
T2 sequence (O60896 24-148 partner): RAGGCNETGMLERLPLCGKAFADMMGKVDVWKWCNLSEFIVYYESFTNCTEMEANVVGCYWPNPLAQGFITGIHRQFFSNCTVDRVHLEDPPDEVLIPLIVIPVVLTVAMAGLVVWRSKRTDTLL
Procedure, shortened: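 Stable COS7 clone co-expressing hCTR2 and hRAMP3, stimulated 15 min at 37° C with increasing peptide in Tyrode buffer pH 7.4 with 100 µM IBMX and 0.1% casein. cAMP measured by AlphaScreen after lysis; EC50 and % efficacy versus pramlintide from 4PL fit.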

[4] = cAMP induction in COS7 cells expressing hAMYR3, average of a minimum of 3 determinations, read-out: hAMY R3 EC50

EC50 ([2]; cAMP induction in COS7 cells expressing hCTR2, average of a minimum of 3 determinations, read-out: hCTR2 EC50) | SMILES | Solubility, Acetate buffer pH 4 [1] | Solubility, Acetate buffer pH 5 [1] | Solubility, Histidine buffer pH 6 [1] | Solubility, Histidine buffer pH 7 [1] | Solubility, Phosphate buffer pH 6 [1] | Solubility, Phosphate buffer pH 7 [1] | Solubility, Phosphate buffer pH 7.5 [1] | EC50 [2] | EC50 [3, 4] | EC50 [3]
– | CC[C@H](C)[C@@H](C(=O)N[C@@H](CC(C)C)C(=O)N[C@@H](CO)C(=O)N[C@@H](CO)C(=O)N[C@H](C(=O)N[C@@H](CCC(=O)O)C(=O)N[C@H](C(=O)NCC(=O)N[C@@H](CO)C(=O)N[C@@H](CCC(=O)O)C(=O)N[C@H](C(=O)N1CCC[C@H]1C(N)=O)[C@@H](C)O)C(C)C)[C@@H](C)O)N(C)C(=O)[C@H](C)NC(=O)CN(C)C(=O)[C@H](Cc1ccccc1)NC(=O)[C@H](CO)NC(=O)[C@H](CO)NC(=O)[C@H](CO)NC(=O)[C@H](CO)NC(=O)[C@H](CCCNC(=N)N)NC(=O)[C@H](Cc1c[nH]cn1)NC(=O)[C@H](CC(C)C)NC(=O)[C@H](Cc1ccccc1)NC(=O)[C@H](CCC(=O)O)NC(=O)[C@H](C)NC(=O)[C@H](CC(C)C)NC(=O)[C@H](CCCNC(=N)N)NC(=O)[C@H](CC(=O)O)NC(=O)[C@@H](NC(=O)[C@H](C)NC(=O)[C@@H]1CSSC[C@H](NC(=O)[C@H](CCCNC(=N)N)NC(=O)CC[C@H](NC(=O)CCCCCCCCCCCCCCCCCCC(=O)O)C(=O)O)C(=O)N[C@@H](CC(=O)O)C(=O)N[C@@H]([C@@H](C)O)C(=O)N[C@@H](C)C(=O)N[C@@H]([C@@H](C)O)C(=O)N1)[C@@H](C)O [Compound 149, [19CD]-isoGlu-RC()DTATC()ATDRLAEFLHRSSSSF-Gly(Me)-A-Ile(Me)-LSSTEVGSETP-NH2] ({C20 diacid-γGlu}-RCDTATCATDRLAEFLHRSSSSF[Sar]A[NMeI]LSSTEVGSETP-NH2; disulfide 2-7) | SS (SS indicates solubility ≥ 1mg/ml) | SS (SS indicates solubility ≥ 1mg/ml) | SS (SS indicates solubility ≥ 1mg/ml) | SS (SS indicates solubility ≥ 1mg/ml) | SS (SS indicates solubility ≥ 1mg/ml) | SS (SS indicates solubility ≥ 1mg/ml) | SS (SS indicates solubility ≥ 1mg/ml) | 0.16 nM | 0.26 nM | –
– | CC[C@H](C)[C@@H](C(=O)N[C@@H](CC(C)C)C(=O)N[C@@H](CO)C(=O)N[C@@H](CO)C(=O)N[C@H](C(=O)N[C@@H](CCC(=O)O)C(=O)N[C@H](C(=O)NCC(=O)N[C@@H](CO)C(=O)N[C@@H](CCC(=O)O)C(=O)N[C@H](C(=O)N1CCC[C@H]1C(N)=O)[C@@H](C)O)C(C)C)[C@@H](C)O)N(C)C(=O)[C@H](C)NC(=O)CN(C)C(=O)[C@H](Cc1ccccc1)NC(=O)[C@H](CO)NC(=O)[C@H](CO)NC(=O)[C@H](CO)NC(=O)[C@H](CO)NC(=O)[C@H](CCCNC(=N)N)NC(=O)[C@H](Cc1c[nH]cn1)NC(=O)[C@H](CC(C)C)NC(=O)[C@H](Cc1ccccc1)NC(=O)[C@H](CCC(=O)O)NC(=O)[C@H](C)NC(=O)[C@H](CC(C)C)NC(=O)[C@H](CCCNC(=N)N)NC(=O)[C@H](CC(=O)O)NC(=O)[C@@H](NC(=O)[C@H](C)NC(=O)[C@@H]1CSSC[C@H](NC(=O)[C@H](CCCNC(=N)N)NC(=O)CC[C@H](NC(=O)CCCCCCCCCCCCCCCCCCC(=O)O)C(=O)O)C(=O)N[C@@H](CCC(=O)O)C(=O)N[C@@H]([C@@H](C)O)C(=O)N[C@@H](C)C(=O)N[C@@H]([C@@H](C)O)C(=O)N1)[C@@H](C)O [Compound 150, [19CD]-isoGlu-RC()ETATC()ATDRLAEFLHRSSSSF-Gly(Me)-A-Ile(Me)-LSSTEVGSETP-NH2] ({C20 diacid-γGlu}-RCETATCATDRLAEFLHRSSSSF[Sar]A[NMeI]LSSTEVGSETP-NH2; disulfide 2-7) | SS (SS indicates solubility ≥ 1mg/ml) | SS (SS indicates solubility ≥ 1mg/ml) | SS (SS indicates solubility ≥ 1mg/ml) | SS (SS indicates solubility ≥ 1mg/ml) | SS (SS indicates solubility ≥ 1mg/ml) | SS (SS indicates solubility ≥ 1mg/ml) | SS (SS indicates solubility ≥ 1mg/ml) | 0.16 nM | 0.26 nM | –
0.066 nM | CC[C@H](C)[C@@H](C(=O)N[C@@H](CC(C)C)C(=O)N[C@@H](CO)C(=O)N[C@@H](CO)C(=O)N[C@H](C(=O)N[C@@H](CCC(=O)O)C(=O)N[C@H](C(=O)NCC(=O)N[C@@H](CO)C(=O)N[C@@H](CCC(=O)O)C(=O)N[C@H](C(=O)N1CCC[C@H]1C(N)=O)[C@@H](C)O)C(C)C)[C@@H](C)O)N(C)C(=O)[C@H](C)NC(=O)CN(C)C(=O)[C@H](Cc1ccccc1)NC(=O)[C@H](CO)NC(=O)[C@H](CO)NC(=O)[C@H](CO)NC(=O)[C@H](CO)NC(=O)[C@H](CCCNC(=N)N)NC(=O)[C@H](Cc1c[nH]cn1)NC(=O)[C@H](CC(C)C)NC(=O)[C@H](Cc1ccccc1)NC(=O)[C@H](CCC(=O)O)NC(=O)[C@H](C)NC(=O)[C@H](CC(C)C)NC(=O)[C@H](CCCNC(=N)N)NC(=O)[C@H](CC(=O)O)NC(=O)[C@@H](NC(=O)[C@H](C)NC(=O)[C@@H]1CSSC[C@H](NC(=O)[C@H](CCCNC(=N)N)NC(=O)CC[C@H](NC(=O)CCCCCCCCCCCCCCCCCCC(=O)O)C(=O)O)C(=O)N2CCC[C@H]2C(=O)N[C@@H]([C@@H](C)O)C(=O)N[C@@H](C)C(=O)N[C@@H]([C@@H](C)O)C(=O)N1)[C@@H](C)O [Compound 151, [19CD]-isoGlu-RC()PTATC()ATDRLAEFLHRSSSSF-Gly(Me)-A-Ile(Me)-LSSTEVGSETP-NH2] ({C20 diacid-γGlu}-RCPTATCATDRLAEFLHRSSSSF[Sar]A[NMeI]LSSTEVGSETP-NH2; disulfide 2-7) | SS (SS indicates solubility ≥ 1mg/ml) | SS (SS indicates solubility ≥ 1mg/ml) | SS (SS indicates solubility ≥ 1mg/ml) | SS (SS indicates solubility ≥ 1mg/ml) | SS (SS indicates solubility ≥ 1mg/ml) | SS (SS indicates solubility ≥ 1mg/ml) | SS (SS indicates solubility ≥ 1mg/ml) | – | 0.11 nM | –
– | CC[C@H](C)[C@@H](C(=O)N[C@@H](CC(C)C)C(=O)N[C@@H](CO)C(=O)N[C@@H](CO)C(=O)N[C@H](C(=O)N[C@@H](CC(N)=O)C(=O)N[C@H](C(=O)NCC(=O)N[C@@H](CO)C(=O)N[C@@H](CC(N)=O)C(=O)N[C@H](C(=O)N1CCC[C@H]1C(=O)NC)[C@@H](C)O)C(C)C)[C@@H](C)O)N(C)C(=O)[C@H](C)NC(=O)CN(C)C(=O)[C@H](Cc1ccccc1)NC(=O)[C@H](CC(N)=O)NC(=O)[C@H](CC(N)=O)NC(=O)[C@H](CO)NC(=O)[C@H](CO)NC(=O)[C@H](CCCNC(=N)N)NC(=O)[C@H](Cc1c[nH]cn1)NC(=O)[C@H](CC(C)C)NC(=O)[C@H](Cc1ccccc1)NC(=O)[C@H](CCC(=O)O)NC(=O)[C@H](C)NC(=O)[C@H](CC(C)C)NC(=O)[C@H](CCCNC(=N)N)NC(=O)[C@H](CCC(N)=O)NC(=O)[C@@H](NC(=O)[C@H](C)NC(=O)[C@@H]1CSSC[C@H](NC(=O)[C@H](CCCNC(=N)N)NC(=O)CC[C@H](NC(=O)CCCCCCCCCCCCCCCCCCC(=O)O)C(=O)O)C(=O)N[C@@H](CC(N)=O)C(=O)N[C@@H]([C@@H](C)O)C(=O)N[C@@H](C)C(=O)N[C@@H]([C@@H](C)O)C(=O)N1)[C@@H](C)O [Compound 152, [19CD]-isoGlu-RC()NTATC()ATQRLAEFLHRSSNNF-Gly(Me)-A-Ile(Me)-LSSTNVGSNTP-NHMe] ({C20 diacid-γGlu}-RCNTATCATQRLAEFLHRSSNNF[Sar]A[NMeI]LSSTNVGSNTP-NHMe; disulfide 2-7) | SS (SS indicates solubility ≥ 1mg/ml) | SS (SS indicates solubility ≥ 1mg/ml) | SS (SS indicates solubility ≥ 1mg/ml) | SS (SS indicates solubility ≥ 1mg/ml) | SS (SS indicates solubility ≥ 1mg/ml) | SS (SS indicates solubility ≥ 1mg/ml) | SS (SS indicates solubility ≥ 1mg/ml) | 0.95 nM | – | 5.2 nM
